Earlier results in PMC9516332 (Frontiers in Oncology, 2022).
Read-outs that look alike come from different tables or passages of the source.

Assays:
[1] = biological target: panel of 255 wild-type kinases (Homo sapiens, UniProt Q00535); conditions: CDK5/p25 kinase assay, 1 µmol/L single concentration, cited from earlier work
[2] = biological target: panel of 255 wild-type kinases (Homo sapiens, UniProt Q13627); conditions: kinase DYRK1A, 1 µmol/L single concentration, cited from earlier work
[3] = biological target: T1, panel of 255 wild-type kinases (Homo sapiens, UniProt P51813); conditions: BMX kinase assay, 1 µmol/L single concentration, cited from earlier work
T1 sequence (P51813 1-675): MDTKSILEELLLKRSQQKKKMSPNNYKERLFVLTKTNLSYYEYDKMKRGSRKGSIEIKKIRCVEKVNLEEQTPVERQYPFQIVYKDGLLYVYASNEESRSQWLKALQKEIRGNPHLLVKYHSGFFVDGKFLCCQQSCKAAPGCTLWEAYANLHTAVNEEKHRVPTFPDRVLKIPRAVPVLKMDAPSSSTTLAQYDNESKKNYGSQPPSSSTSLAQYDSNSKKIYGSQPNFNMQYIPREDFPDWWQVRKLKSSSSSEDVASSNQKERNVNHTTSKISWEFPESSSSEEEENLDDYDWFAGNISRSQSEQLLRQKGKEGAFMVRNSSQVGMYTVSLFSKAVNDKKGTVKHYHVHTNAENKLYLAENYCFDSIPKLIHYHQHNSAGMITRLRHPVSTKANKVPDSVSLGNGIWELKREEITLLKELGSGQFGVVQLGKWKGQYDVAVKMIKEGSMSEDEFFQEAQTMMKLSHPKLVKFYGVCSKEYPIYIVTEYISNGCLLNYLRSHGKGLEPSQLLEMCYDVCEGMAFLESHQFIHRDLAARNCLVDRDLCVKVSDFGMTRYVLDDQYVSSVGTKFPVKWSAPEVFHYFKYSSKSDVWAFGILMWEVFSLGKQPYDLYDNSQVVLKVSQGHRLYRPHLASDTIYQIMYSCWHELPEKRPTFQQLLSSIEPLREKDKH

[4] = biological target: panel of 255 wild-type kinases (Homo sapiens, UniProt P49674); conditions: kinase CK1ε, 1 µmol/L single concentration, cited from earlier work
[5] = biological target: panel of 255 wild-type kinases (Homo sapiens, UniProt Q9H1R3); conditions: kinase skMLCK, 1 µmol/L single concentration, cited from earlier work
[6] = biological target: panel of 255 wild-type kinases (Homo sapiens, UniProt P14616); conditions: kinase IRR, 1 µmol/L single concentration, cited from earlier work
[7] = biological target: panel of 255 wild-type kinases (Homo sapiens, UniProt Q96GD4); conditions: AurB kinase assay, 1 µmol/L single concentration, cited from earlier work
[8] = biological target: panel of 255 wild-type kinases (Homo sapiens, UniProt P08581); conditions: MET, 1 µmol/L single concentration, cited from earlier work
[9] = biological target: panel of 255 wild-type kinases (Homo sapiens, UniProt Q16288); conditions: kinase TRKC, 1 µmol/L single concentration, cited from earlier work
[10] = biological target: panel of 255 wild-type kinases (Homo sapiens, UniProt P53779); conditions: kinase JNK3, 1 µmol/L single concentration, cited from earlier work
[11] = biological target: panel of 255 wild-type kinases (Homo sapiens, UniProt Q8IY84); conditions: NIM1K; 1 µmol/L single concentration; ref DOI: 10.1158/1535-7163.MCT-18-0877; cited from earlier work
[12] = biological target: panel of 255 wild-type kinases (Homo sapiens, UniProt Q13464); conditions: kinase ROCK1, 1 µmol/L single concentration, cited from earlier work
[13] = biological target: panel of 255 wild-type kinases (Homo sapiens, UniProt P50613); conditions: CDK7/CycH/MAT1 kinase assay, 1 µmol/L single concentration, cited from earlier work
[14] = biological target: panel of 255 wild-type kinases (Homo sapiens, UniProt Q96SB4); conditions: kinase SRPK1, 1 µmol/L single concentration, cited from earlier work
[15] = biological target: panel of 255 wild-type kinases (Homo sapiens, UniProt Q9Y6M4); conditions: kinase CK1γ3, 1 µmol/L single concentration, cited from earlier work
[16] = biological target: panel of 255 wild-type kinases (Homo sapiens, UniProt O43683); conditions: BUB1/BUB3 kinase assay; 1 µmol/L single concentration; ref DOI: 10.1158/1535-7163.MCT-18-0877; cited from earlier work
[17] = biological target: panel of 255 wild-type kinases (Homo sapiens, UniProt P17252); conditions: kinase PKCα, 1 µmol/L single concentration, cited from earlier work
[18] = biological target: panel of 255 wild-type kinases (Homo sapiens, UniProt Q9UM73); conditions: ALK kinase assay, 1 µmol/L single concentration, cited from earlier work
[19] = ref DOI: 10.1371/journal.pone.0092146
[20] = ref DOI: 10.1158/1535-7163.MCT-18-0877

Compound	%-inhibition CDK5/p25 [1, 19]	%-inhibition at 1 µmol/L, DYRK1A [2, 19]	%-inhibition BMX [3, 19]	%-inhibition at 1 µmol/L, CK1ε [4, 19]	%-inhibition at 1 µmol/L, skMLCK [5, 19]	%-inhibition at 1 µmol/L, IRR [6, 19]	%-inhibition AurB [7, 19]	%-inhibition, MET [8, 19]	%-inhibition at 1 µmol/L, TRKC [9, 19]	%-inhibition at 1 µmol/L, JNK3 [10, 19]	%-inhibition CDK5/p25 [1, 20]	%-inhibition, NIM1K [11]	%-inhibition at 1 µmol/L, ROCK1 [12, 20]	%-inhibition CDK7/CycH/MAT1 [13, 20]	%-inhibition at 1 µmol/L, SRPK1 [14, 20]	%-inhibition at 1 µmol/L, DYRK1A [2, 20]	%-inhibition at 1 µmol/L, ROCK1 [12, 19]	%-inhibition CDK7/CycH/MAT1 [13, 19]	%-inhibition at 1 µmol/L, SRPK1 [14, 19]	%-inhibition at 1 µmol/L, PKCα [17, 19]	also measured
CC(C)(C)c1nc(-c2cccc(NS(=O)(=O)c3c(F)cccc3F)c2F)c(-c2ccnc(N)n2)s1 [dabrafenib]	22%	16%	55%	10%	0.52%	10%	39%	27%	81%	5.59%	–	–	–	–	–	–	–	–	–	–	–
CCc1cc2c(cc1N1CCC(N3CCOCC3)CC1)C(C)(C)c1[nH]c3cc(C#N)ccc3c1C2=O [alectinib]	–	–	–	–	–	–	–	–	–	–	-12%	-2.13%	-2%	-12%	83%	4%	–	–	–	–	%-inhibition at 1 µmol/L, CK1γ3 [15, 20]: 0.159%; %-inhibition BUB1/BUB3 [16]: 2%; %-inhibition BMX [3, 20]: 4%; %-inhibition at 1 µmol/L, CK1ε [4, 20]: 4.48%; %-inhibition at 1 µmol/L, PKCα [17, 20]: 1.48%; %-inhibition at 1 µmol/L, skMLCK [5, 20]: -11%; %-inhibition at 1 µmol/L, IRR [6, 20]: 57%; %-inhibition AurB [7, 20]: 9%; %-inhibition, MET [8, 20]: 8%; %-inhibition at 1 µmol/L, TRKC [9, 20]: 31%; %-inhibition at 1 µmol/L, JNK3 [10, 20]: -0.533%
CCCS(=O)(=O)Nc1ccc(F)c(C(=O)c2c[nH]c3ncc(-c4ccc(Cl)cc4)cc23)c1F [vemurafenib]	5%	-18%	24%	2.46%	53%	21%	6%	3.67%	5%	2.85%	–	–	–	–	–	–	1.28%	0.137%	2%	-3.61%	%-inhibition ALK [18, 19]: 1.14%; %-inhibition at 1 µmol/L, CK1γ3 [15, 19]: 2.14%
CC(=O)Nc1cccc(-n2c(=O)n(C3CC3)c(=O)c3c(Nc4ccc(I)cc4F)n(C)c(=O)c(C)c32)c1 [trametinib]	19%	-1.23%	-3.22%	-5.38%	-3.34%	1.35%	-4%	-2.41%	-7.43%	-2.37%	–	–	–	–	–	–	3.21%	-6%	-0.0691%	-5%	%-inhibition ALK [18, 19]: -2.82%
CC#CC(=O)N1CCC[C@H]1c1nc(-c2ccc(C(=O)Nc3ccccn3)cc2)c2c(N)nccn12 [acalabrutinib]	–	–	–	–	–	–	–	–	–	–	-19%	-7%	-8%	5%	-4.73%	-4.57%	–	–	–	–	%-inhibition ALK [18, 20]: 5.27%; %-inhibition at 1 µmol/L, CK1γ3 [15, 20]: -15%; %-inhibition BUB1/BUB3 [16]: 5.51%; %-inhibition at 1 µmol/L, CK1ε [4, 20]: -10%; %-inhibition at 1 µmol/L, PKCα [17, 20]: -17%; %-inhibition at 1 µmol/L, skMLCK [5, 20]: -17%; %-inhibition at 1 µmol/L, IRR [6, 20]: -0.87%; %-inhibition AurB [7, 20]: 11%; %-inhibition, MET [8, 20]: 4%; %-inhibition at 1 µmol/L, TRKC [9, 20]: 11%; %-inhibition at 1 µmol/L, JNK3 [10, 20]: -0.893%
C[C@@H](Oc1cc(-c2cnn(C3CCNCC3)c2)cnc1N)c1c(Cl)ccc(F)c1Cl [crizotinib]	-8%	-13%	–	4%	–	–	–	–	–	-1.87%	–	–	–	–	–	–	3.39%	58%	4.55%	-8.47%	%-inhibition at 1 µmol/L, CK1γ3 [15, 19]: 4%
